According to ChEMBL document CHEMBL4251595, “Green approach for the synthesis of thiophenyl pyrazoles and isoxazoles by adopting 1,3-dipolar cycloaddition methodology and their antimicrobial activity” (2018):
≈ marks a conversion by molar mass, not a printed value. Calls of active or inactive are those of the source. No cut-off for these calls is given here.

Key:
Type in all cases: functional
Bacillus subtilis [1] = test: Antimicrobial activity against Bacillus subtilis assessed as zone of inhibition at 100 ug/well after 24 hrs by agar well diffusion method; settings: for zone of inhibition at 100 µg/disc: read-out: DIZ
Pseudomonas aeruginosa [2] = test: Bactericidal activity against Pseudomonas aeruginosa incubated for 24 hrs followed by replating on sterile nutrient broth and incubated for 24 hrs by broth dilution test
Aspergillus niger [3] = test: Fungicidal activity against Aspergillus niger incubated for 48 hrs followed by replating on PDA and incubated for 48 hrs by broth dilution test
Aspergillus niger [4] = test: Antifungal activity against Aspergillus niger assessed as zone of inhibition at 100 ug/well after 48 hrs by agar well diffusion method; settings: read-out: DIZ
Klebsiella pneumoniae [5] = test: Bactericidal activity against Klebsiella pneumoniae incubated for 24 hrs followed by replating on sterile nutrient broth and incubated for 24 hrs by broth dilution test
Penicillium chrysogenum [6] = test: Antifungal activity against Penicillium chrysogenum after 48 hrs by broth dilution test
Staphylococcus aureus [7] = test: Bactericidal activity against Staphylococcus aureus incubated for 24 hrs followed by replating on sterile nutrient broth and incubated for 24 hrs by broth dilution test
Penicillium chrysogenum [8] = test: Antifungal activity against Penicillium chrysogenum assessed as zone of inhibition at 50 ug/well after 48 hrs by agar well diffusion method; settings: for zone of inhibition at 50 µg/disc: read-out: DIZ
Bacillus subtilis [9] = test: Antimicrobial activity against Bacillus subtilis after 24 hrs by broth dilution test
Pseudomonas aeruginosa [10] = test: Antimicrobial activity against Pseudomonas aeruginosa assessed as zone of inhibition at 100 ug/well after 24 hrs by agar well diffusion method; settings: for zone of inhibition at 100 µg/disc: read-out: DIZ
Aspergillus niger [11] = test: Antifungal activity against Aspergillus niger after 48 hrs by broth dilution test
Staphylococcus aureus [12] = test: Antimicrobial activity against Staphylococcus aureus assessed as zone of inhibition at 75 ug/well after 24 hrs by agar well diffusion method; settings: for zone of inhibition at 75 µg/disc: read-out: DIZ
Staphylococcus aureus [13] = test: Antimicrobial activity against Staphylococcus aureus after 24 hrs by broth dilution test
Klebsiella pneumoniae [14] = test: Antimicrobial activity against Klebsiella pneumoniae assessed as zone of inhibition at 100 ug/well after 24 hrs by agar well diffusion method; settings: for zone of inhibition at 100 µg/disc: read-out: DIZ
Bacillus subtilis [15] = test: Antimicrobial activity against Bacillus subtilis assessed as zone of inhibition at 50 ug/well after 24 hrs by agar well diffusion method; settings: for zone of inhibition at 50 µg/disc: read-out: DIZ
Penicillium chrysogenum [16] = test: Antifungal activity against Penicillium chrysogenum assessed as zone of inhibition at 100 ug/well after 48 hrs by agar well diffusion method; settings: for zone of inhibition at 100 µg/disc: read-out: DIZ
Aspergillus niger [17] = test: Antifungal activity against Aspergillus niger assessed as zone of inhibition at 75 ug/well after 48 hrs by agar well diffusion method; settings: read-out: DIZ
Penicillium chrysogenum [18] = test: Antifungal activity against Penicillium chrysogenum assessed as zone of inhibition at 75 ug/well after 48 hrs by agar well diffusion method; settings: for zone of inhibition at 75 µg/disc: read-out: DIZ
Klebsiella pneumoniae [19] = test: Antimicrobial activity against Klebsiella pneumoniae after 24 hrs by broth dilution test
Pseudomonas aeruginosa [20] = test: Antimicrobial activity against Pseudomonas aeruginosa after 24 hrs by broth dilution test
Pseudomonas aeruginosa [21] = test: Antimicrobial activity against Pseudomonas aeruginosa assessed as zone of inhibition at 75 ug/well after 24 hrs by agar well diffusion method; settings: for zone of inhibition at 75 µg/disc: read-out: DIZ
Bacillus subtilis [22] = test: Antimicrobial activity against Bacillus subtilis assessed as zone of inhibition at 75 ug/well after 24 hrs by agar well diffusion method; settings: for zone of inhibition at 75 µg/disc: read-out: DIZ
Staphylococcus aureus [23] = test: Antimicrobial activity against Staphylococcus aureus assessed as zone of inhibition at 50 ug/well after 24 hrs by agar well diffusion method; settings: for zone of inhibition at 50 µg/disc: read-out: DIZ
Staphylococcus aureus [24] = test: Antimicrobial activity against Staphylococcus aureus assessed as zone of inhibition at 100 ug/well after 24 hrs by agar well diffusion method; settings: for zone of inhibition at 100 µg/disc: read-out: DIZ
Klebsiella pneumoniae [25] = test: Antimicrobial activity against Klebsiella pneumoniae assessed as zone of inhibition at 50 ug/well after 24 hrs by agar well diffusion method; settings: for zone of inhibition at 50 µg/disc: read-out: DIZ
Klebsiella pneumoniae [26] = test: Antimicrobial activity against Klebsiella pneumoniae assessed as zone of inhibition at 75 ug/well after 24 hrs by agar well diffusion method; settings: for zone of inhibition at 75 µg/disc: read-out: DIZ
Bacillus subtilis [27] = test: Bactericidal activity against Bacillus subtilis incubated for 24 hrs followed by replating on sterile nutrient broth and incubated for 24 hrs by broth dilution test
Penicillium chrysogenum [28] = test: Fungicidal activity against Penicillium chrysogenum incubated for 48 hrs followed by replating on PDA and incubated for 48 hrs by broth dilution test
Aspergillus niger [29] = test: Antifungal activity against Aspergillus niger assessed as zone of inhibition at 50 ug/well after 48 hrs by agar well diffusion method; settings: for zone of inhibition at 50 µg/disc: read-out: DIZ
Pseudomonas aeruginosa [30] = test: Antimicrobial activity against Pseudomonas aeruginosa assessed as zone of inhibition at 50 ug/well after 24 hrs by agar well diffusion method; settings: for zone of inhibition at 50 µg/disc: read-out: DIZ

| Compound | zone of inhibition at 100 µg/disc (Bacillus subtilis [1]) [mm] | zone of inhibition at 100 µg/disc (Aspergillus niger [4]) [mm] | MIC (Penicillium chrysogenum [6]) [µg/mL] | zone of inhibition at 50 µg/disc (Penicillium chrysogenum [8]) [mm] | MIC (Bacillus subtilis [9]) [µg/mL] | zone of inhibition at 100 µg/disc (Pseudomonas aeruginosa [10]) [mm] | MIC (Aspergillus niger [11]) [µg/mL] | zone of inhibition at 75 µg/disc (Staphylococcus aureus [12]) [mm] | MIC (Staphylococcus aureus [13]) [µg/mL] | zone of inhibition at 100 µg/disc (Klebsiella pneumoniae [14]) [mm] | zone of inhibition at 50 µg/disc (Bacillus subtilis [15]) [mm] | zone of inhibition at 100 µg/disc (Penicillium chrysogenum [16]) [mm] | zone of inhibition at 75 µg/disc (Aspergillus niger [17]) [mm] | zone of inhibition at 75 µg/disc (Penicillium chrysogenum [18]) [mm] | MIC (Klebsiella pneumoniae [19]) [µg/mL] | MIC (Pseudomonas aeruginosa [20]) [µg/mL] | zone of inhibition at 75 µg/disc (Bacillus subtilis [22]) [mm] | zone of inhibition at 100 µg/disc (Staphylococcus aureus [24]) [mm] | zone of inhibition at 50 µg/disc (Klebsiella pneumoniae [25]) [mm] | zone of inhibition at 75 µg/disc (Klebsiella pneumoniae [26]) [mm] | also measured |
| --- | --- | --- | --- | --- | --- | --- | --- | --- | --- | --- | --- | --- | --- | --- | --- | --- | --- | --- | --- | --- | --- |
| O=C(NS(=O)(=O)/C=C/c1ccc([N+](=O)[O-])cc1)c1ccc(Cl)s1 | 38 | 31 | 100 (≈ 268 µM) | 24 | 6.25 (≈ 16.8 µM) | 24 | 25 (≈ 67.1 µM) | 24 | 50 (≈ 134 µM) | 33 | 31 | 28 | 29 | 26 | 25 (≈ 67.1 µM) | 25 (≈ 67.1 µM) | 34 | 26 | 27 | 29 | MBC (Pseudomonas aeruginosa [2]): 100 µg/mL (≈ 268 µM); MFC (Aspergillus niger [3]): 100 µg/mL (≈ 268 µM); MBC (Klebsiella pneumoniae [5]): 100 µg/mL (≈ 268 µM); MBC (Staphylococcus aureus [7]): 200 µg/mL (≈ 536 µM); zone of inhibition at 75 µg/disc (Pseudomonas aeruginosa [21]): 21 mm; zone of inhibition at 50 µg/disc (Staphylococcus aureus [23]): 21 mm; MBC (Bacillus subtilis [27]): 12.5 µg/mL (≈ 33.5 µM); MFC (Penicillium chrysogenum [28]): > 200 µg/mL; zone of inhibition at 50 µg/disc (Aspergillus niger [29]): 27 mm; zone of inhibition at 50 µg/disc (Pseudomonas aeruginosa [30]): 19 mm |
| CC(=O)N1CCN(c2ccc(OCC3COC(Cn4ccnc4)(c4ccc(Cl)cc4Cl)O3)cc2)CC1 (stereo not given) [KETOCONAZOLE] | – | 36 | 12.5 (≈ 23.5 µM) | 35 | – | – | 6.25 (≈ 11.8 µM) | – | – | – | – | 38 | 33 | 36 | – | – | – | – | – | – | zone of inhibition at 50 µg/disc (Aspergillus niger [29]): 31 mm |
| O=C(N[C@H](CO)[C@H](O)c1ccc([N+](=O)[O-])cc1)C(Cl)Cl [CHLORAMPHENICOL] | 38 | – | – | – | 6.25 (≈ 19.3 µM) | 30 | – | 33 | 12.5 (≈ 38.7 µM) | 42 | 32 | – | – | – | 6.25 (≈ 19.3 µM) | 6.25 (≈ 19.3 µM) | 34 | 35 | 38 | 40 | zone of inhibition at 75 µg/disc (Pseudomonas aeruginosa [21]): 27 mm; zone of inhibition at 50 µg/disc (Staphylococcus aureus [23]): 30 mm; zone of inhibition at 50 µg/disc (Pseudomonas aeruginosa [30]): 25 mm |
| O=C(NS(=O)(=O)C1C(c2ccccc2)=NOC1c1ccccc1)c1ccc(Cl)s1 (stereo not given) | 16 | 12 | – | – | – | – | – | – | – | 12 | 10 | 7 | 9 | – | – | – | 12 | 8 | 8 | 10 | diameter of the inhibition zone (DIZ) (Penicillium chrysogenum [8]): inactive; diameter of the inhibition zone (DIZ) (Pseudomonas aeruginosa [10]): inactive; diameter of the inhibition zone (DIZ) (Staphylococcus aureus [12]): inactive; diameter of the inhibition zone (DIZ) (Penicillium chrysogenum [18]): inactive; diameter of the inhibition zone (DIZ) (Pseudomonas aeruginosa [21]): inactive; diameter of the inhibition zone (DIZ) (Staphylococcus aureus [23]): inactive; diameter of the inhibition zone (DIZ) (Aspergillus niger [29]): inactive; diameter of the inhibition zone (DIZ) (Pseudomonas aeruginosa [30]): inactive |
| Cc1ccc(C2C(S(=O)(=O)NC(=O)c3cccs3)C(c3ccccc3)=NN2c2ccccc2)cc1 (stereo not given) | – | 10 | – | – | – | – | – | – | – | – | – | – | 8 | – | – | – | – | – | – | – | diameter of the inhibition zone (DIZ) (Bacillus subtilis [1]): inactive; diameter of the inhibition zone (DIZ) (Penicillium chrysogenum [8]): inactive; diameter of the inhibition zone (DIZ) (Pseudomonas aeruginosa [10]): inactive; diameter of the inhibition zone (DIZ) (Staphylococcus aureus [12]): inactive; diameter of the inhibition zone (DIZ) (Klebsiella pneumoniae [14]): inactive; diameter of the inhibition zone (DIZ) (Bacillus subtilis [15]): inactive; diameter of the inhibition zone (DIZ) (Penicillium chrysogenum [16]): inactive; diameter of the inhibition zone (DIZ) (Penicillium chrysogenum [18]): inactive; diameter of the inhibition zone (DIZ) (Pseudomonas aeruginosa [21]): inactive; diameter of the inhibition zone (DIZ) (Bacillus subtilis [22]): inactive; diameter of the inhibition zone (DIZ) (Staphylococcus aureus [23]): inactive; diameter of the inhibition zone (DIZ) (Staphylococcus aureus [24]): inactive; diameter of the inhibition zone (DIZ) (Klebsiella pneumoniae [25]): inactive; diameter of the inhibition zone (DIZ) (Klebsiella pneumoniae [26]): inactive; diameter of the inhibition zone (DIZ) (Aspergillus niger [29]): inactive; diameter of the inhibition zone (DIZ) (Pseudomonas aeruginosa [30]): inactive |
